Columns and labels:
Mycobacterium abscessus = experiment: MIC/MBC assays, CLSI method; format: cell-based; details: Table 14, unit not given

| NO Load (Table 14, unit not given) | MIC (Mycobacterium abscessus; M. abscessus N0010, clinical) | MIC (Mycobacterium abscessus; M. abscessus N0016, clinical) | MIC (Mycobacterium abscessus; M. abscessus N0017, clinical) | MIC (Mycobacterium abscessus; M. abscessus N0018, clinical) | MIC (Mycobacterium abscessus; M. abscessus N0019, clinical) | MIC (Mycobacterium abscessus; M. abscessus N0020, clinical) | MIC (Mycobacterium abscessus; M. abscessus N0046) | Structure (SMILES) | NO-loading (compositions of MTDD (NCT-19-096) and β-cyclodextrin) | MBC (Mycobacterium abscessus; M. abscessus N0010, clinical) | MBC (Mycobacterium abscessus; M. abscessus N0016, clinical) | MBC (Mycobacterium abscessus; M. abscessus N0017, clinical) | MBC (Mycobacterium abscessus; M. abscessus N0018, clinical) | MBC (Mycobacterium abscessus; M. abscessus N0019, clinical) | MBC (Mycobacterium abscessus; M. abscessus N0020, clinical) | MBC (Mycobacterium abscessus; M. abscessus N0046) |
| --- | --- | --- | --- | --- | --- | --- | --- | --- | --- | --- | --- | --- | --- | --- | --- | --- |
| – | – | – | – | – | – | – | – | OC[C@H]1O[C@@H]2O[C@H]3[C@H](O)[C@@H](O)[C@@H](O[C@H]4[C@H](O)[C@@H](O)[C@@H](O[C@H]5[C@H](O)[C@@H](O)[C@@H](O[C@H]6[C@H](O)[C@@H](O)[C@@H](O[C@H]7[C@H](O)[C@@H](O)[C@@H](O[C@H]8[C@H](O)[C@@H](O)[C@@H](O[C@H]1[C@H](O)[C@H]2O)O[C@@H]8CO)O[C@@H]7CO)O[C@@H]6CO)O[C@@H]5CO)O[C@@H]4CO)O[C@@H]3CO [0% MTDD/100% β-cyclodextrin, β-cyclodextrin] | 0.0 µmol/mg | – | – | – | – | – | – | – |
| 6.9 | 1 | 2 | 2 | 1 | 2 | 1 | 2 | C[C@@H]1CCC[C@H](C)N1[N+]([O-])=N[O-].[Na+] [cis-DMP/NO] | – | 4 | 4 | 4 | 4 | 4 | 2 | 4 |
